One data set relates to ENaCα mRNA. Put plainly: Screening of ENaCα siNAs in human A549 cells (quantitative RT-PCR). The format is cell-based. Further details: Percent Reduction of the ENaCα mRNA relative to a non-targeting control siNA (NTC): concentration or dose not given beside the values. The method in brief:
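ENaCα knockdown in human A549 cells is measured by qRT-PCR (standard-curve quantitation), normalized to a non-targeting siNA control. Lipofectamine 2000 complexes deliver 25 nM siNA per well (lipid 2.33 μg/ml, held constant in dose-response); IC50 from a sigmoidal variable-slope fit.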

In the next data set the test system is rSCNN1A (r ENaCα) mRNA. Put plainly: Screening of ENaCα siNAs in Rat H-4-II-E cells (quantitative RT-PCR). The format is cell-based. Further details: Percent Reduction of the r ENaCα mRNA relative to a non-targeting control siNA (NTCs) / Rat % KD (efficacy of ENaCα mRNA knockdown): concentration or dose not given beside the values. The method in brief:
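Knockdown read-out: qRT-PCR quantified against a standard curve of same-cell-line RNA, ENaCα normalized to species housekeeping gene (GAPDH or 36B4) and expressed versus non-targeting control. Cells received lipid-complexed siNA, 25 nM final, in triplicate and were assayed at 24 h; IC50 by variable-slope sigmoidal fit.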

[1] abbreviates: human A549 cells, 24 hours post-transfection, n = 3.
The mark [2] stands for this setting: Rat H-4-II-E cells, 24 hours post-transfection, n = 3.

Take “B uuAuGGAuGAuGGuGGcuu TTB / AAGccAccAucAuccAuAAUU (sense UUAUGGAUGAUGGUGGCUUTT; antisense AAGCCACCAUCAUCCAUAAUU; siRNA; B caps on sense ends, letter-case modifications not given here, further chemistry not given here) [Site 1181]”: the “Avg ENaCα Expression” value in the data set with ENaCα mRNA (human A549 cells, 25 nM siNA with Lipofectamine 2000, harvested 24 hours post-transfection, n = 3) is 36.75. In addition, in the data set with ENaCα mRNA (setting [1]), the “Mean (level of ENaCα expression normalized to the level of GAPDH)” value was 0.55 and the “Percent Reduction of the ENaCα mRNA relative to a non-targeting control siNA (NTC)” value amounted to 64.7%. For the same substance, the “Avg GAPDH Expression” value in the data set on ENaCα mRNA (human A549 cells, housekeeping gene used for normalisation, 24 hours post-transfection, n = 3) turned out to be 70.22. For the same substance, the IC50 with ENaCα mRNA (human cell line, dose response, read-out: Human IC50 (potency of ENaCα mRNA knockdown)) was determined as 0.4 nM. Moreover, the “Human % KD (efficacy of ENaCα mRNA knockdown)” value with ENaCα mRNA (human cell line, summary) is reported as 65-80%. Besides, in the data set with rSCNN1A (r ENaCα) mRNA (setting [2]), the “Mean (rSCNN1A expression normalized to the level of rGAPDH)” value was 0.41 and the “Percent Reduction of the r ENaCα mRNA relative to a non-targeting control siNA (NTCs)” value worked out at 68.1%. Besides, in the data set on rSCNN1A (r ENaCα) mRNA (Rat H-4-II-E cells, harvested 24 hours post-transfection, n = 3), the “Avg ENaCα Expression (rSCNN1A)” value was found to be 10.34. Moreover, in the data set on rSCNN1A (r ENaCα) mRNA (Rat H-4-II-E cells, housekeeping gene used for normalisation, 24 hours post-transfection, n = 3), the “Avg GAPDH Expression (rGAPDH)” value is on record as 24.78. Besides, the IC50 in the data set with rSCNN1A (r ENaCα) mRNA (rat cell line, dose response, read-out: Rat IC50 (potency of ENaCα mRNA knockdown)) came out at 1 nM. For the same substance, in the data set on rSCNN1A (r ENaCα) mRNA (rat cell line, summary), the “Rat % KD (efficacy of ENaCα mRNA knockdown)” value is given as 68%.

By IC50 is commonly meant the concentration that inhibits the measured activity by half.

These data come from US20110288154A1, “RNA Interference Mediated Inhibition of Epithelial Sodium Channel (ENaC) Gene Expression Using Short Interfering Nucleic Acid (siNA)” (MERCK & CO., INC., priority 2008, published 2011).
